Measured values: ChEMBL document CHEMBL4138122, “Azaphenothiazines - promising phenothiazine derivatives. An insight into nomenclature, synthesis, structure elucidation and biological properties” (Eur J Med Chem, 2017)
Values after ≈ are worked out from the molar mass of the structure shown.

Tests used:
[1] = tested on: Mycobacterium tuberculosis; experiment: Antitubercular activity against Mycobacterium tuberculosis; format: functional
Escherichia coli = experiment: Antibacterial activity against Escherichia coli by CLSI protocol based method; format: functional
Aspergillus niger = experiment: Antifungal activity against Aspergillus niger by CLSI protocol based method; format: functional
MCF7 [2] = experiment: Growth inhibition of human MCF7 cells at 10 uM; format: functional; conditions: read-out: GI
T47D = experiment: Growth inhibition of human T47D cells at 10 uM; format: functional; conditions: read-out: GI
UO-31 = experiment: Growth inhibition of human UO31 cells at 10 uM; format: functional; conditions: read-out: GI
SK-MEL-2 = experiment: Growth inhibition of human SK-MEL-2 cells at 10 uM; format: functional; conditions: read-out: GI
HCT-116 [3] = experiment: Cytotoxicity against human HCT116 cells assessed as cell growth inhibition after 48 hrs by SRB assay; format: functional, cell-based; conditions: HCT-116, 48 h
PC-3 [4] = experiment: Cytotoxicity against human PC3 cells assessed as cell growth inhibition after 48 hrs by SRB assay; format: functional, cell-based; conditions: PC-3, 48 h
SK-MEL-5 = experiment: Cytotoxicity against human SK-MEL-5 cells assessed as cell growth inhibition after 48 hrs by SRB assay; format: functional, cell-based; conditions: SK-MEL-5, 48 h
CCRF-CEM = experiment: Cytotoxicity against human CCRF-CEM cells assessed as cell growth inhibition after 48 hrs by SRB assay; format: functional, cell-based
MOLT-4 = experiment: Cytotoxicity against human MOLT4 cells assessed as cell growth inhibition after 48 hrs by SRB assay; format: functional, cell-based; conditions: MOLT-4, 48 h
SNB-75 = experiment: Cytotoxicity against human SNB75 cells assessed as cell growth inhibition after 48 hrs by SRB assay; format: functional, cell-based; conditions: SNB-75, 48 h
SF-295 = experiment: Cytotoxicity against human SF295 cells assessed as cell growth inhibition after 48 hrs by SRB assay; format: functional, cell-based; conditions: SF-295, 48 h
NCI-H460 = experiment: Cytotoxicity against human NCI-H460 cells assessed as cell growth inhibition after 48 hrs by SRB assay; format: functional, cell-based; conditions: NCI-H460, 48 h
HOP-92 = experiment: Cytotoxicity against human HOP92 cells assessed as cell growth inhibition after 48 hrs by SRB assay; format: functional, cell-based; conditions: HOP-92, 48 h
IGROV-1 = experiment: Cytotoxicity against human IGROV1 cells assessed as cell growth inhibition after 48 hrs by SRB assay; format: functional, cell-based; conditions: IGROV-1, 48 h
OVCAR-4 = experiment: Cytotoxicity against human OVCAR4 cells assessed as cell growth inhibition after 48 hrs by SRB assay; format: functional, cell-based; conditions: OVCAR-4, 48 h
OVCAR-5 = experiment: Cytotoxicity against human OVCAR5 cells assessed as cell growth inhibition after 48 hrs by SRB assay; format: functional, cell-based; conditions: OVCAR-5, 48 h
786-0 = experiment: Cytotoxicity against human 786-O cells assessed as cell growth inhibition after 48 hrs by SRB assay; format: functional, cell-based; conditions: 786-0, 48 h
COLO 205 = experiment: Cytotoxicity against human COLO205 cells assessed as cell growth inhibition after 48 hrs by SRB assay; format: functional, cell-based; conditions: COLO 205, 48 h
RXF 393 = experiment: Cytotoxicity against human RXF393 cells assessed as cell growth inhibition after 48 hrs by SRB assay; format: functional, cell-based; conditions: RXF 393, 48 h
EKVX = experiment: Cytotoxicity against human EKVX cells assessed as cell growth inhibition at 2.1 ug/ml after 48 hrs by SRB assay; format: functional, cell-based
OVCAR-3 = experiment: Cytotoxicity against human OVCAR3 cells assessed as cell growth inhibition after 48 hrs by SRB assay; format: functional, cell-based; conditions: OVCAR-3, 48 h
Malme-3M = experiment: Cytotoxicity against human MALME-3M cells assessed as cell growth inhibition after 48 hrs by SRB assay; format: functional, cell-based
MCF7 [5] = experiment: Cytotoxicity against human MCF7 cells assessed as cell growth inhibition after 48 hrs by SRB assay; format: functional, cell-based; conditions: MCF7, 48 h
SR = experiment: Cytotoxicity against human SR cells assessed as cell growth inhibition after 48 hrs by SRB assay; format: functional, cell-based
SF-268 = experiment: Cytotoxicity against human SF268 cells assessed as cell growth inhibition after 48 hrs by SRB assay; format: functional, cell-based; conditions: SF-268, 48 h
MCF7 [6] = experiment: Cytotoxicity against human MCF7 cells assessed as inhibition of cell growth after 72 hrs by SRB assay; format: functional, cell-based; conditions: MCF7, 72 h
HCT-116 [7] = experiment: Cytotoxicity against human HCT116 cells assessed as inhibition of cell growth after 72 hrs by SRB assay; format: functional, cell-based; conditions: HCT-116, 72 h
PC-3 [8] = experiment: Cytotoxicity against human PC3 cells assessed as inhibition of cell growth after 72 hrs by SRB assay; format: functional, cell-based; conditions: PC-3, 72 h
HepG2 = experiment: cells; conditions: Homo sapiens, HepG2, 72 h
Description: Cytotoxicity against human HepG2 cells assessed as inhibition of cell growth after 72 hrs by SRB assay

[9] = Inhibition of LTB4 formation in rat polymorphonuclear leukocytes preincubated for 2 mins followed by A-23187 addition after 4 mins; format: functional, cell-based
Trachea = experiment: Inhibition of egg albumin antigen challenge-induced contraction response in methacholine-primed guinea pig trachea at 10 ug/ml; format: functional; conditions: Cavia porcellus
Rattus norvegicus = experiment: Inhibition of PAF-induced hyperalgesia in Sprague-Dawley rat at 10 mg/kg, po dosed 30 mins prior to PAF challenge and measured 1 to 4 hours post PAF challenge; format: functional

CCN(c1cnc2sc3c4c(=O)c5c(O)c(C)c6c(c5c-3nc2c1)C(=O)[C@@](C)(O/C=C/[C@H](OC)[C@@H](C)[C@@H](OC(C)=O)[C@H](C)[C@H](O)[C@H](C)[C@@H](O)[C@@H](C)/C=C/C=C(/C)C(=O)N4)O6)C(C)C
MIC [1]: 0.005 µg/mL (≈ 0.00564 µM)

CCSc1ncc2c(n1)N=c1c(Cl)c3c(c(Cl)c1S2)=Nc1nc(SCC)nc(O)c1S3
MIC (Escherichia coli): 169 µg/mL (≈ 320 µM) | MIC (Aspergillus niger): 138 µg/mL (≈ 262 µM)

CCCCN1c2nc3ccccc3cc2Sc2cc3ccccc3nc21
inhibition of growth at 10 µM (MCF7 [2]): 93% | inhibition of growth at 10 µM (T47D): 86% | inhibition of growth at 10 µM (UO-31): 78%

c1ccc(N2c3nc4ccccc4cc3Sc3cc4ccccc4nc32)nc1
inhibition of growth at 10 µM (UO-31): 57 to 73% | inhibition of growth at 10 µM (SK-MEL-2): 61%

O=C(NCCCl)NCCN1c2nc3ccccc3cc2Sc2cc3ccccc3nc21
IC50 (HCT-116 [3]): 250 to 1000 nM | IC50 (PC-3 [4]): 250 to 1000 nM | IC50 (SK-MEL-5): 87 nM | IC50 (CCRF-CEM): 250 to 1000 nM | IC50 (MOLT-4): 250 to 1000 nM | IC50 (SNB-75): 250 to 1000 nM | IC50 (SF-295): 250 to 1000 nM | IC50 (NCI-H460): 250 to 1000 nM | IC50 (HOP-92): 250 to 1000 nM | IC50 (IGROV-1): 250 to 1000 nM | IC50 (OVCAR-4): 250 to 1000 nM | IC50 (OVCAR-5): 250 to 1000 nM | IC50 (786-0): 250 to 1000 nM

[Cl-].c1ccc2nc3c(cc2c1)Sc1cc2ccccc2[n+]2c1N3CC2
IC50 (COLO 205): 1.3 µg/mL | IC50 (RXF 393): 5 µg/mL | IC50 (PC-3 [4]): 10 µg/mL | IC50 (SK-MEL-5): 1.5 µg/mL | IC50 (NCI-H460): 7.4 µg/mL | IC50 (EKVX): 7.6 µg/mL | IC50 (OVCAR-3): 7.8 µg/mL | IC50 (Malme-3M): 1.3 µg/mL | IC50 (MCF7 [5]): 3.2 µg/mL | IC50 (SR): 4.9 µg/mL | IC50 (SF-268): 8.5 µg/mL

COc1ccc(-c2c3c(N)c4c(nc3nc3[nH]nc(-c5ccccc5)c23)Sc2ccccc2N4)cc1
IC50 (MCF7 [6]): 34500 to 36500 nM | IC50 (HCT-116 [7]): 34500 to 36500 nM | IC50 (PC-3 [8]): 34500 to 36500 nM | IC50 (HepG2): 19100 nM

c1ccc2c(c1)Nc1nccnc1S2
IC50 [9]: 1 to 5 µg/mL (≈ 4.97 to 24.8 µM) | inhibition at 10 µg/mL (Trachea): 85% | inhibition in vivo at 10 mg/kg (Rattus norvegicus): 70%
